Test results published in PubChem BioAssay AID1963437 (Molecular Pharmacology Branch, DTP, NCI, 2024).
Values joined by “and” are separate entries in the source; they are usually repeats but may differ in a detail not shown here. Equal entries are not always repeated.

Tested on: OVCAR-8 complex spheroid, growth inhibition
Assay: Anticancer human tumor OVCAR-8 cell line growth inhibition [Asc];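 note: spheroids exposed to agents for 7 days before readout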;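 for viability, T/C: percent viability relative to DMSO vehicle wells taken as 100%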
Settings: for viability, T/C: stronger effect = lower value
Procedure, shortened: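 Tumor cells were grown as multicellular spheroids with stromal HUVEC and mesenchymal stem cells and treated singly or in combination. Concentrations fell in half-log steps from the clinical Cmax, or from 10 microM where none was known.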

[1] = curve of first compound, second compound 0.0316 µM
[2] = curve of first compound, second compound 0.1 µM
[3] = curve of first compound, second compound 0.316 µM
[4] = curve of first compound, second compound 1 µM

`O=C(c1cc(Cc2n[nH]c(=O)c3ccccc23)ccc1F)N1CCN(C(=O)C2CC2)CC1` + CNC(C)C(=O)NC1CN(S(=O)(=O)c2cccc(S(=O)(=O)N3CCC4CCC(C(=O)NC(c5ccccc5)c5ccccc5)N4C(=O)C(NC(=O)C(C)NC)C3)c2)CCC2CCC(C(=O)NC(c3ccccc3)c3ccccc3)N2C1=O was tested, and the IC50 (curve of first compound, second compound 0.00316 µM) was under 0.0316 µM, the IC50 (curve of first compound, second compound 0.01 µM) was over 10 µM and the IC50 [1] was over 10 µM. For the same compound, the IC50 [2] was over 10 µM, the IC50 [3] was 9.9 µM and the IC50 [4] was 6.84 µM. It also gave a viability, T/C (second compound 0.00316 µM, first compound 0.0316 µM) of 0.81%, a viability, T/C (second compound 0.00316 µM, first compound 0.1 µM) of 1.08% and a viability, T/C (second compound 0.00316 µM, first compound 0.316 µM) of 0.69%. The viability, T/C (second compound 0.00316 µM, first compound 1 µM) was 1.07%, the viability, T/C (second compound 0.00316 µM, first compound 3.16 µM) was 1.9% and the viability, T/C (second compound 0.00316 µM, first compound 10 µM) was 0.51%. It also gave a viability, T/C (second compound 0.01 µM, first compound 0.0316 µM) of 111%, a viability, T/C (second compound 0.01 µM, first compound 0.1 µM) of 102% and a viability, T/C (second compound 0.01 µM, first compound 0.316 µM) of 101%. The viability, T/C (second compound 0.01 µM, first compound 1 µM) was 110%, the viability, T/C (second compound 0.01 µM, first compound 3.16 µM) was 112% and the viability, T/C (second compound 0.01 µM, first compound 10 µM) was 79.2%. The viability, T/C (second compound 0.0316 µM, first compound 0.0316 µM) was 94%, the viability, T/C (second compound 0.0316 µM, first compound 0.1 µM) was 99.3% and the viability, T/C (second compound 0.0316 µM, first compound 0.316 µM) was 101%. For the same compound, the viability, T/C (second compound 0.0316 µM, first compound 1 µM) was 94.7%, the viability, T/C (second compound 0.0316 µM, first compound 3.16 µM) was 103% and the viability, T/C (second compound 0.0316 µM, first compound 10 µM) was 87%. The viability, T/C (second compound 0.1 µM, first compound 0.0316 µM) was 80.3%, the viability, T/C (second compound 0.1 µM, first compound 0.1 µM) was 86.4% and the viability, T/C (second compound 0.1 µM, first compound 0.316 µM) was 88.6%. For the same compound, the viability, T/C (second compound 0.1 µM, first compound 1 µM) was 101%, the viability, T/C (second compound 0.1 µM, first compound 3.16 µM) was 83.9% and the viability, T/C (second compound 0.1 µM, first compound 10 µM) was 79.1%. The viability, T/C (second compound 0.316 µM, first compound 0.0316 µM) was 83.7%, the viability, T/C (second compound 0.316 µM, first compound 0.1 µM) was 100% and the viability, T/C (second compound 0.316 µM, first compound 0.316 µM) was 90.4%. It also gave a viability, T/C (second compound 0.316 µM, first compound 1 µM) of 82.4%, a viability, T/C (second compound 0.316 µM, first compound 3.16 µM) of 90.9% and a viability, T/C (second compound 0.316 µM, first compound 10 µM) of 49.7%. It also gave a viability, T/C (second compound 1 µM, first compound 0.0316 µM) of 79.2%, a viability, T/C (second compound 1 µM, first compound 0.1 µM) of 90.7% and a viability, T/C (second compound 1 µM, first compound 0.316 µM) of 99.5%. It also gave a viability, T/C (second compound 1 µM, first compound 1 µM) of 90.3%, a viability, T/C (second compound 1 µM, first compound 3.16 µM) of 92.5% and a viability, T/C (second compound 1 µM, first compound 10 µM) of 29.8%.
With `C=CC(=O)N1CCN(c2nc(=O)n(-c3c(C)ccnc3C(C)C)c3nc(-c4c(O)cccc4F)c(F)cc23)C(C)C1` (stereo not drawn) the viability, T/C (compound 0.0316 µM) was 106% and 97.9% and 94.2%, the viability, T/C (compound 0.1 µM) was 102% and 109% and 80.9% and the viability, T/C (compound 0.316 µM) was 84.7% and 95.3% and 101%. For the same compound, the viability, T/C (compound 1 µM) was 98.6% and 95.9% and 99.3%, the viability, T/C (compound 3.16 µM) was 86.1% and 102% and 101% and the viability, T/C (compound 10 µM) was 108% and 99.7% and 96.6%. The IC50 (curve of compound) was over 10 µM.
For `CCN1C(C(=O)NC23CCC(C(=O)O)(CC2)CC3)C(c2cccc(Cl)c2F)C2(C(=O)Nc3cc(Cl)ccc32)C12CCCCC2` (stereo not drawn) + Cc1c(S(C)(=O)=O)c(-c2cc(F)cc(N3CCN(c4ccc(NS(=O)(=O)c5ccc(NC(CCN6CCC(C(=O)OCCCP(=O)(O)O)CC6)CSc6ccccc6)c(S(=O)(=O)C(F)(F)F)c5)cc4)CC3)c2)c(-c2ccc(Cl)cc2)n1C(C)C, the IC50 [1] was over 3 µM, the IC50 [2] was over 3 µM and the IC50 [3] was over 3 µM. The IC50 [4] was over 3 µM, the IC50 (curve of first compound, second compound 3.16 µM) was over 3 µM and the IC50 (curve of first compound, second compound 10 µM) was over 3 µM. It also gave a viability, T/C (second compound 0.0316 µM, first compound 0.00949 µM) of 92.4%, a viability, T/C (second compound 0.0316 µM, first compound 0.03 µM) of 99.1% and a viability, T/C (second compound 0.0316 µM, first compound 0.0949 µM) of 99.5%. For the same compound, the viability, T/C (second compound 0.0316 µM, first compound 0.3 µM) was 90%, the viability, T/C (second compound 0.0316 µM, first compound 0.949 µM) was 107% and the viability, T/C (second compound 0.0316 µM, first compound 3 µM) was 109%. It also gave a viability, T/C (second compound 0.1 µM, first compound 0.00949 µM) of 90.1%, a viability, T/C (second compound 0.1 µM, first compound 0.03 µM) of 95.8% and a viability, T/C (second compound 0.1 µM, first compound 0.0949 µM) of 94.8%. For the same compound, the viability, T/C (second compound 0.1 µM, first compound 0.3 µM) was 89.8%, the viability, T/C (second compound 0.1 µM, first compound 0.949 µM) was 101% and the viability, T/C (second compound 0.1 µM, first compound 3 µM) was 105%. It also gave a viability, T/C (second compound 0.316 µM, first compound 0.00949 µM) of 108%, a viability, T/C (second compound 0.316 µM, first compound 0.03 µM) of 99.9% and a viability, T/C (second compound 0.316 µM, first compound 0.0949 µM) of 94.8%. It also gave a viability, T/C (second compound 0.316 µM, first compound 0.3 µM) of 105%, a viability, T/C (second compound 0.316 µM, first compound 0.949 µM) of 102% and a viability, T/C (second compound 0.316 µM, first compound 3 µM) of 125%. It also gave a viability, T/C (second compound 1 µM, first compound 0.00949 µM) of 109%, a viability, T/C (second compound 1 µM, first compound 0.03 µM) of 93.1% and a viability, T/C (second compound 1 µM, first compound 0.0949 µM) of 93.5%. The viability, T/C (second compound 1 µM, first compound 0.3 µM) was 106%, the viability, T/C (second compound 1 µM, first compound 0.949 µM) was 112% and the viability, T/C (second compound 1 µM, first compound 3 µM) was 144%. It also gave a viability, T/C (second compound 3.16 µM, first compound 0.00949 µM) of 118%, a viability, T/C (second compound 3.16 µM, first compound 0.03 µM) of 95.2% and a viability, T/C (second compound 3.16 µM, first compound 0.0949 µM) of 88.3%. For the same compound, the viability, T/C (second compound 3.16 µM, first compound 0.3 µM) was 101%, the viability, T/C (second compound 3.16 µM, first compound 0.949 µM) was 98.8% and the viability, T/C (second compound 3.16 µM, first compound 3 µM) was 144%. The viability, T/C (second compound 10 µM, first compound 0.00949 µM) was 113%, the viability, T/C (second compound 10 µM, first compound 0.03 µM) was 104% and the viability, T/C (second compound 10 µM, first compound 0.0949 µM) was 106%. It also gave a viability, T/C (second compound 10 µM, first compound 0.3 µM) of 86.7%, a viability, T/C (second compound 10 µM, first compound 0.949 µM) of 132% and a viability, T/C (second compound 10 µM, first compound 3 µM) of 146%.
With `C#Cc1c(F)ccc2cc(O)cc(-c3ncc4c(N5CC6CCC(C5)N6)nc(OCC56CCCN5CC(F)C6)nc4c3F)c12` (stereo not drawn) the viability, T/C (compound 0.0316 µM) was 110% and 90.4% and 96.5%, the viability, T/C (compound 0.1 µM) was 95.6% and 80.1% and 97.5% and the viability, T/C (compound 0.316 µM) was 101% and 110% and 87%. For the same compound, the viability, T/C (compound 1 µM) was 110% and 94.2% and 95%, the viability, T/C (compound 3.16 µM) was 93.7% and 83.9% and 94.7% and the viability, T/C (compound 10 µM) was 116% and 98.9% and 85.9%. It also gave an IC50 (curve of compound) of over 10 µM.
